Source: patent US20110184057A1, “PARENTERAL TREATMENT WITH STATINS” (priority 2008, published 2011)

Test: Plasma lovastatin levels in rats after a single oral or dermal dose, by HMG-CoA reductase inhibition assay
Assay type: in vivo, rat
Conditions: intact rats, single dose, 1, 3, 6 and 24 hours; dermal in 100% DMSO vs oral gavage in 0.5% methylcellulose
Protocol: For oral administration, a suspension of lovastatin was prepared in 0.5% methylcellulose and administered by gavage.

With `CC[C@H](C)C(=O)O[C@H]1C[C@@H](C)C=C2C=C[C@H](C)[C@H](CC[C@@H]3C[C@@H](O)CC(=O)O3)[C@H]21` [lovastatin] the “plasma concentrations of lovastatin, dermal versus oral” value was “greater, less variable and more prolonged than when the drug was given orally”.
